Patent US12059409B1, “Pharmaceutical composition for modified release” (ASTELLAS PHARMA INC., priority 2008, dated 2024)

Assay: Clinical trial of compound A in conventional formulations (not published)
Details: human, in vivo; read-out: elimination half-life (T1/2)
Description: These problems are considered to be raised by, for example, the changes in pharmacokinetics caused by food, and therefore, the development of a formulation capable of avoiding the effects by food intake is desired.
Taking into consideration the results of the clinical trial described above, the present inventors conducted intensive studies to design the formulation by paying attention to the control of a release rate of the drug from a formulation to the extent that the release is not affected by food intake or the like, rather than the addition of release control.
On the basis of blood concentration profiles (in a fasted state/after the intake of food) after administration of a conventional formulation (rapid release formulation), the absorption rate of the drug in a fed state was calculated by a deconvolution method to predict continuous absorption for about 4 hours.

half-life: 18 to 24 h
Structure (SMILES): Nc1nc(CC(=O)Nc2ccc(CCNC[C@H](O)c3ccccc3)cc2)cs1 [compound A, (R)-2-(2-aminothiazol-4-yl)-4′-[2-[(2-hydroxy-2-phenylethyl)amino]ethyl]acetic acid anilide]
